Results on five molecules are retold here after ChEMBL document CHEMBL3045313, “Reduced Lantadenes A and B: semi-synthetic synthesis, selective cytotoxicity, apoptosis induction and inhibition of NO, TNF- production in HL-60 cells” (Med Chem Res, 2013).

Assay [1] concerns HL-60. As to the kind of experiment: Inhibition of nitrite production in Homo sapiens (human) HL60 cells at 5 to 15 uM after 12 hr by Griess assay. The format is functional, cell-based.
The test system of assay [2] is HSC-2. The assay is described as follows: Cytotoxicity against Homo sapiens (human) HSC2 cells assessed as growth inhibition after 48 hr by MTT assay. The format is functional, cell-based. Particulars: HSC-2, 48 h. In general terms: Tetrazolium dyes change colour on reduction, which living cells bring about.
In assay [3] the test system is MCF7. As to the kind of experiment: Cytotoxicity against Homo sapiens (human) MCF7 cells assessed as growth inhibition after 48 hr by MTT assay. The assay is classed as functional, cell-based. As to conditions: MCF7, 48 h.
Assay [4] has as its system HL-60. As to the kind of experiment: Cytotoxicity against Homo sapiens (human) HL60 cells assessed as growth inhibition after 48 hr by MTT assay. The format is functional, cell-based. Particulars: HL-60, 48 h.
Assay [5] has as its system HCT-116. As to the kind of experiment: Cytotoxicity against Homo sapiens (human) HCT116 cells assessed as growth inhibition after 48 hr by MTT assay. As to conditions: HCT-116, 48 h. The assay is classed as functional, cell-based.
The subject of assay [6] is Vero. The assay is described as follows: Cytotoxicity against Chlorocebus aethiops (African green monkey) Vero cells assessed as growth inhibition after 48 hr by MTT assay. The format is cell-based. As to conditions: Chlorocebus sabaeus.
For assay [7], the system named is HL-60. The assay is described as follows: Cell cycle arrest in Homo sapiens (human) HL60 cells assessed as accumulation at S phase at 15 uM after 12 hr by propidium iodide staining-based FACS flow cytometric analysis (reference value: 56.8 +/- 2.4%). The format is functional.
The subject of assay [8] is HL-60. The assay is described as follows: Cell cycle arrest in Homo sapiens (human) HL60 cells assessed as accumulation at G2/M phase at 15 uM after 9 hr by propidium iodide staining-based FACS flow cytometric analysis (reference value: 9 +/- 1.2%). The assay is classed as functional.
Assay [9] has as its system HL-60. The assay is described as follows: Cell cycle arrest in Homo sapiens (human) HL60 cells assessed as accumulation at G0/G1 phase at 15 uM after 9 hr by propidium iodide staining-based FACS flow cytometric analysis (reference value: 36.2 +/- 2.4%). The format is functional. Background: A flow cytometer gives signals particle by particle.
Assay [10] concerns HL-60. As to the kind of experiment: Downregulation of bcl-2 expression in Homo sapiens (human) HL60 cells at 15 uM after 4 hr by RT-PCR analysis. The assay is classed as functional, cell-based.
For assay [11], the system named is HL-60. The assay is described as follows: Cell cycle arrest in Homo sapiens (human) HL60 cells assessed as accumulation at sub-G1 phase at 15 uM after 6 hr by propidium iodide staining-based FACS flow cytometric analysis (reference value: 0.1%). The format is functional.
The subject of assay [12] is HL-60. The assay is described as follows: Cell cycle arrest in Homo sapiens (human) HL60 cells assessed as accumulation at G0/G1 phase at 15 uM after 3 hr by propidium iodide staining-based FACS flow cytometric analysis (reference value: 36.2 +/- 2.4%). The assay is classed as functional.
Assay [13] has as its system HL-60. As to the kind of experiment: Cell cycle arrest in Homo sapiens (human) HL60 cells assessed as accumulation at S phase at 15 uM after 9 hr by propidium iodide staining-based FACS flow cytometric analysis (reference value: 56.8 +/- 2.4%). The format is functional.
The subject of assay [14] is HL-60. As to the kind of experiment: Inhibition of nitrite production in Homo sapiens (human) HL60 cells after 12 hr by Griess assay. The format is functional, cell-based. On the technique in general: The Griess reaction detects nitrite, a stable product of nitric oxide.
Assay [15] has as its system HL-60. As to the kind of experiment: Cell cycle arrest in Homo sapiens (human) HL60 cells assessed as accumulation at G2/M phase at 15 uM after 12 hr by propidium iodide staining-based FACS flow cytometric analysis (reference value: 8.2 +/- 0.4%).
The test system of assay [16] is HL-60. As to the kind of experiment: Downregulation of NF-kappaB expression in Homo sapiens (human) HL60 cells at 15 uM after 4 hr by RT-PCR analysis. The format is functional, cell-based.
For assay [17], the system named is HL-60. As to the kind of experiment: Inhibition of TNFalpha production in Homo sapiens (human) HL60 cells after 6 hr by ELISA. The assay is classed as functional, cell-based.
Assay [18] relates to HL-60. The assay is described as follows: Cell cycle arrest in Homo sapiens (human) HL60 cells assessed as accumulation at sub-G1 phase at 15 uM after 12 hr by propidium iodide staining-based FACS flow cytometric analysis (reference value: 0.1%). The assay is classed as functional.
The subject of assay [19] is HL-60. The assay is described as follows: Cell cycle arrest in Homo sapiens (human) HL60 cells assessed as accumulation at G2/M phase at 15 uM after 3 hr by propidium iodide staining-based FACS flow cytometric analysis (reference value: 9 +/- 1.2%). The format is functional.
Assay [20] relates to HL-60. The assay is described as follows: Upregulation of bax expression in Homo sapiens (human) HL60 cells at 15 uM after 4 hr by RT-PCR analysis. The assay is classed as functional, cell-based.
Assay [21] relates to HL-60. The assay is described as follows: Upregulation of caspase-3 expression in Homo sapiens (human) HL60 cells at 15 uM after 4 hr by RT-PCR analysis. The format is functional, cell-based.
The subject of assay [22] is HL-60. The assay is described as follows: Cell cycle arrest in Homo sapiens (human) HL60 cells assessed as accumulation at S phase at 15 uM after 3 hr by propidium iodide staining-based FACS flow cytometric analysis (reference value: 56.8 +/- 2.4%). The assay is classed as functional.
In assay [23] the test system is HL-60. As to the kind of experiment: Cell cycle arrest in Homo sapiens (human) HL60 cells assessed as accumulation at G0/G1 phase at 15 uM after 6 hr by propidium iodide staining-based FACS flow cytometric analysis (reference value: 36.2 +/- 2.4%). The format is functional.
The subject of assay [24] is HL-60. As to the kind of experiment: Downregulation of iNOS expression in Homo sapiens (human) HL60 cells at 15 uM after 4 hr by RT-PCR analysis relative to control. The assay is classed as functional, cell-based.
For assay [25], the system named is HL-60. As to the kind of experiment: Downregulation of iNOS expression in Homo sapiens (human) HL60 cells after 12 hr by scanning densitometric analysis. The format is functional, cell-based.
Assay [26] has as its system HL-60. The assay is described as follows: Induction of apoptosis in Homo sapiens (human) HL60 cells assessed as appearance of apoptotic bodies at 15 uM after 24 hr by hoechst 33258 staining-based fluorescence microscopic analysis relative to control. The format is functional, cell-based.
For assay [27], the system named is HL-60. The assay is described as follows: Cell cycle arrest in Homo sapiens (human) HL60 cells assessed as accumulation at sub-G1 phase at 15 uM after 3 hr by propidium iodide staining-based FACS flow cytometric analysis (reference value: 0.1%). The format is functional.
The test system of assay [28] is HL-60. The assay is described as follows: Induction of apoptosis in Homo sapiens (human) HL60 cells assessed as DNA fragmentation at 15 uM after 24 hr by hoechst 33258 staining-based fluorescence microscopic analysis relative to control. The format is functional, cell-based.
Assay [29] has as its system HL-60. The assay is described as follows: Cell cycle arrest in Homo sapiens (human) HL60 cells assessed as accumulation at sub-G1 phase at 15 uM after 9 hr by propidium iodide staining-based FACS flow cytometric analysis (reference value: 0.1%). The format is functional.
Assay [30] deals with HL-60. As to the kind of experiment: Cell cycle arrest in Homo sapiens (human) HL60 cells assessed as accumulation at G0/G1 phase at 15 uM after 12 hr by propidium iodide staining-based FACS flow cytometric analysis (reference value: 36.2 +/- 2.4%). The format is functional.
For assay [31], the system named is HL-60. As to the kind of experiment: Cell cycle arrest in Homo sapiens (human) HL60 cells assessed as accumulation at G2/M phase at 15 uM after 6 hr by propidium iodide staining-based FACS flow cytometric analysis (reference value: 9 +/- 1.2%). The assay is classed as functional.
Assay [32] has as its system HL-60. The assay is described as follows: Induction of apoptosis in Homo sapiens (human) HL60 cells assessed as caspase 3 activation at 15 uM after 24 hr by colorimetric analysis. The format is functional, cell-based.
Assay [33] concerns HL-60. The assay is described as follows: Cell cycle arrest in Homo sapiens (human) HL60 cells assessed as accumulation at S phase at 15 uM after 6 hr by propidium iodide staining-based FACS flow cytometric analysis (reference value: 56.8 +/- 2.4%). The assay is classed as functional.

Molecules are shown by their SMILES. Calls of active or inactive are those of the source. The rule behind the calls is not given here.

With `CNC(=N)NCCC[C@H](N)C(=O)O`, in assay [1], the inhibition entry was “Active”.

One may read the IC50 as the concentration at which inhibition is half-maximal. Turning to `C/C=C(/C)C(=O)O[C@@H]1CC(C)(C)C[C@H]2C3=CC[C@@H]4[C@@]5(C)CCC(=O)C(C)(C)[C@@H]5CC[C@@]4(C)[C@]3(C)CC[C@@]12C(=O)O` [LANTADENE A], the half-inhibitory concentration (IC50) in assay [2] is 50.7 µM; in assay [3], 25.8 µM; in assay [4] it was 19.3 µM; in assay [5] it was 13.4 µM; in assay [6], > 50 µM.

`CC(C)=CC(=O)O[C@@H]1CC(C)(C)C[C@@H]2C3=CC[C@@H]4[C@@]5(C)CCC(=O)C(C)(C)[C@@H]5CC[C@@]4(C)[C@]3(C)CC[C@]21C(=O)O` [LANTADENE B]: the IC50 is 43 µM in assay [2]; 81.4 µM in assay [3]; 19.1 µM in assay [4]; 13.2 µM in [5]; > 50 µM in [6].

Regarding `C/C=C(/C)C(=O)O[C@@H]1CC(C)(C)C[C@H]2C3=CC[C@@H]4[C@@]5(C)CC[C@H](O)C(C)(C)[C@@H]5CC[C@@]4(C)[C@]3(C)CC[C@@]12C(=O)O` [Reduced Lantadene A], the Activity in assay [7] is 44.8%; in assay [8], 20.8%; in assay [9], 14%; in assay [11] it was 0.4%; in assay [12] it was 34.4%; in [13], 63.6%. In addition, the Activity in assay [15] is 42%; in [18], 3.2%; in assay [19] it was 8.4%; in assay [22] it was 57%; in [23] it was 20.8%; in assay [25], “Dose-dependent effect”. The Activity in assay [27] was 0.2%; in assay [28], “Dose-dependent effect”; in [29], 1.2%; in [30], 15.4%; in assay [31] it was 15.8%; in assay [33], 64.2%. The outcome in assay [10], in assay [16], in assay [20], in assay [21], in assay [24] and in assay [26] was Active. The result in assay [32] was Active. Also, the inhibition entry in assay [14] and in assay [17] was “Dose-dependent effect” in each case. Moreover, the IC50 was 6.1 µM in assay [2]; 6 µM in [3]; 1.5 µM in assay [4]; 1.2 µM in assay [5]; > 50 µM in [6].

Turning to `CC(C)=CC(=O)O[C@@H]1CC(C)(C)C[C@H]2C3=CC[C@@H]4[C@@]5(C)CC[C@H](O)C(C)(C)[C@@H]5CC[C@@]4(C)[C@]3(C)CC[C@@]12C(=O)O` [Reduced Lantadene B], the Activity in assay [7] is listed as 42.1%; in assay [8], 19.9%; in assay [9] it was 12.6%; in [11] it was 0.5%; in assay [12] it was 32.8%; in assay [13], 61.6%. Besides, the Activity is 40.8% in assay [15]; 3.4% in assay [18]; 7.4% in assay [19]; 55.1% in [22]; 18.2% in assay [23]; “Dose-dependent effect” in assay [25]. Besides, the Activity was 0.3% in [27]; “Dose-dependent effect” in [28]; 13.9% in assay [30]; 14.8% in [31]; 62.1% in assay [33]. Besides, the outcome in [10], in [16], in [20], in assay [21], in assay [24] and in [26] was Active. In addition, the outcome in assay [32] was Active. The inhibition result in assay [14] and in assay [17] was “Dose-dependent effect” each time. Moreover, the IC50 in assay [2] was 6.4 µM; in assay [3] it was 5.2 µM; in assay [4] it was 2.1 µM; in [5], 1.8 µM; in assay [6], > 50 µM.
